Data taken from patent US8324390B2, “Tetrazole-substituted anthranilamides as pesticides” (Bayer CropScience AG, priority 2008, dated 2012).
Like-named read-outs stand apart in the source and are kept apart here.

Key:
[1] = tested on: larvae of the mustard beetle (Phaedon cochleariae); assay: Phaedon test (PHAECO spray treatment); settings: Phaedon cochleariae, in Brassica rapa, foliar, read-out: effect in % (beetle larvae killed)
[2] = tested on: caterpillars of the armyworm (Spodoptera frugiperda); assay: Spodoptera frugiperda test (SPODFR spray treatment); type: in vivo; settings: Spodoptera frugiperda, foliar, read-out: effect in % (caterpillars killed)
Excerpt: Solvent: 78.0 parts by weight of acetone

[3] = log P determination by HPLC (EEC Directive 79/831 Annex V.A8); type: physicochemical
Protocol: The measurements were carried out using an Agilent 1100 LC system with a 50*4.6 Zorbax Eclipse C18 1.8 μm column (oven temperature 55° C., flow rate 2.0 ml/min).
The following mobile phases were used:
Mobile phase A: acetonitrile+1000 μl of formic acid/l
Mobile phase B: Millipore water+900 μl of formic acid/l

[4] = application rate 100 g/ha, maize leaf discs
[5] = reversed-phase HPLC, Zorbax Eclipse C18 column, by HPLC according to EEC Directive 79/831 Annex V.A8, read-out: log P
[6] = by HPLC according to EEC Directive 79/831 Annex V.A8, read-out: log P
[7] = reversed-phase HPLC, Zorbax Eclipse C18 column, determined by HPLC according to EEC Directive 79/831 Annex V.A8, read-out: log P

chromatographic logP [3, 5] | chromatographic logP [3, 7] | Compound | pest or weed control at 100 g/ha [1] [%] | pest or weed control at 100 g/ha ([2]; in Zea mays) [%] | chromatographic logP ([3]; log P) | pest or weed control at 100 g/ha [2, 4] [%] | chromatographic logP [3, 6]
– | – | Cc1cc(Br)cc(C(=O)NC2CC2)c1NC(=O)c1cc(Cn2nnc(C(F)(F)C(F)(F)F)n2)nn1-c1ncccc1Cl [Example 145] | ≥ 80 | ≥ 80 | 3.74 | – | –
4.43 | – | Cc1cc(Cl)cc(C(=O)NC(C)(C)C)c1NC(=O)c1cc(Cn2nnc(C(F)(F)F)n2)nn1-c1ccccc1Br [Example 348] | ≥ 80 | – | – | ≥ 80 | –
– | – | Cc1cc(I)cc(C(=O)NCC2CC2)c1NC(=O)c1cc(Cn2nnc(C(F)F)n2)nn1-c1ncccc1Cl [Example 279] | ≥ 80 | ≥ 80 | 3.27 | – | –
– | – | Cc1cc(C#N)cc(C(=O)NC(C)(C)C)c1NC(=O)c1cc(Cn2nnc(C(F)(F)C(F)(F)C(F)(F)F)n2)nn1-c1ncccc1Cl [Example 108] | ≥ 80 | ≥ 80 | – | – | 4.16
– | – | Cc1cc(C#N)cc(C(=O)NC(C)(C)C)c1NC(=O)c1cc(C(C)n2nnc(C(F)(F)F)n2)nn1-c1ncccc1Cl (stereo not drawn) [Example 436] | ≥ 80 | ≥ 80 | 3.7 | – | –
– | 3.35 | Cc1cc(C#N)cc(C(=O)NC(C)(C)C)c1NC(=O)c1cc(Cn2nnnc2C(F)(F)F)nn1-c1ccccc1 [Example 520] | ≥ 80 | – | – | ≥ 80 | –
3.21 | – | Cc1cc(Br)cc(C(=O)NCC#N)c1NC(=O)c1cc(Cn2nnc(C(F)(F)F)n2)nn1-c1ncccc1C(F)(F)F [Example 248] | ≥ 80 | – | – | ≥ 80 | –
– | – | CNC(=O)c1cc(F)cc(C)c1NC(=O)c1cc(Cn2nnc(C(F)(F)C(F)(F)F)n2)nn1-c1ncccc1Cl [Example 147] | ≥ 80 | ≥ 80 | 3.09 | – | –
– | – | CCNC(=O)c1cc(Cl)cc(C)c1NC(=O)c1cc(Cn2nnc(C(F)(F)F)n2)nn1-c1ncccc1Cl [Example 33] | ≥ 80 | ≥ 80 | 3.23 | – | –
– | – | CC(NC(=O)c1cc(Cl)cc(Cl)c1NC(=O)c1cc(Cn2nnc(C(F)(F)F)n2)nn1-c1ncccc1Cl)C1CC1 (stereo not drawn) [Example 56] | ≥ 80 | ≥ 80 | 3.71 | – | –
– | – | O=C(NC1CC1)c1cc(Cl)cc(Cl)c1NC(=O)c1cc(Cn2nnc(C(F)(F)F)n2)nn1-c1ncccc1Cl [Example 57] | ≥ 80 | ≥ 80 | 3.18 | – | –
– | – | Cc1cc(Cl)cc(C(=O)NC(C)(C)C)c1NC(=O)c1cc(Cn2nnc(C(F)(F)C(F)(F)C(F)(F)F)n2)nn1-c1ncccc1Cl [Example 107] | ≥ 80 | ≥ 80 | – | – | 4.6
– | – | Cc1cc(C#N)cc(C(=O)NCC2CCCCC2)c1NC(=O)c1cc(Cn2nnnc2C(F)(F)F)nn1-c1ncccc1Cl [Example 195] | ≥ 80 | ≥ 80 | 3.26 | – | –
– | 3.19 | CNC(=O)c1cc(Cl)cc(C)c1NC(=O)c1cc(Cn2nnc(C(F)(F)F)n2)nn1-c1ccccc1 [Example 404] | ≥ 80 | – | – | ≥ 80 | –
– | – | CNC(=O)c1cc(C#N)cc(C)c1NC(=O)c1cc(Cn2nnc(C(F)(F)C(F)(F)F)n2)nn1-c1ncccc1Cl [Example 213] | ≥ 80 | ≥ 80 | 3.05 | – | –
– | – | Cc1cc(C#N)cc(C(=O)NC2CCCC2)c1NC(=O)c1cc(Cn2nnc(C(F)(F)F)n2)nn1-c1ncccc1Cl [Example 399] | ≥ 80 | ≥ 80 | 3.37 | – | –
– | – | CC(NC(=O)c1cc(Cl)cc(Cl)c1NC(=O)c1cc(Cn2nnc(C(F)(F)C(F)(F)F)n2)nn1-c1ncccc1Cl)C1CC1 (stereo not drawn) [Example 150] | ≥ 80 | ≥ 80 | 4.12 | – | –
– | – | CCNC(=O)c1cc(Cl)cc(Cl)c1NC(=O)c1cc(Cn2nnc(C(F)(C(F)(F)F)C(F)(F)F)n2)nn1-c1ncccc1Cl [Example 388] | ≥ 80 | ≥ 80 | 3.89 | – | –
– | – | O=C(NCC1CC1)c1cc(Cl)cc(Cl)c1NC(=O)c1cc(Cn2nnc(C(F)(F)C(F)(F)F)n2)nn1-c1ncccc1Cl [Example 156] | ≥ 80 | ≥ 80 | 3.88 | – | –
– | – | Cc1cc(Cl)cc(C(=O)NCC2CC2)c1NC(=O)c1cc(Cn2nnc(C(F)(F)F)n2)nn1-c1ncccc1Cl [Example 46] | ≥ 80 | ≥ 80 | 3.53 | – | –

chromatographic logP [3, 5] | chromatographic logP [3, 7] | Compound | pest or weed control at 100 g/ha [1] [%] | pest or weed control at 100 g/ha ([2]; in Zea mays) [%] | chromatographic logP ([3]; log P) | pest or weed control at 100 g/ha [2, 4] [%] | chromatographic logP [3, 6]
– | – | CCNC(=O)c1cc(C#N)cc(C)c1NC(=O)c1cc(Cn2nnc(C(F)(C(F)(F)F)C(F)(F)F)n2)nn1-c1ncccc1Cl [Example 369] | ≥ 80 | ≥ 80 | 3.57 | – | –
– | – | O=C(NCC1CC1)c1cc(Cl)cc(Cl)c1NC(=O)c1cc(Cn2nnc(C(F)(F)F)n2)nn1-c1ncccc1Cl [Example 63] | ≥ 80 | ≥ 80 | 3.47 | – | –
– | – | CNC(=O)c1cc(Br)cc(C)c1NC(=O)c1cc(Cn2nnc(C(F)(F)C(F)(F)F)n2)nn1-c1ncccc1Cl [Example 143] | ≥ 80 | ≥ 80 | 3.5 | – | –
– | 3.82 | CNC(=O)c1cc(C#N)cc(C)c1NC(=O)c1cc(Cn2nnc(C(F)(F)F)n2)nn1-c1ccc(OC(F)(F)F)cc1Cl [Example 531] | ≥ 80 | – | – | ≥ 80 | –
– | – | Cc1cc(F)cc(C(=O)NC(C)C2CC2)c1NC(=O)c1cc(Cn2nnc(C(F)(F)C(F)(F)F)n2)nn1-c1ncccc1Cl (stereo not drawn) [Example 148] | ≥ 80 | ≥ 80 | 3.8 | – | –
3.07 | – | CCNC(=O)c1cc(C#N)cc(C)c1NC(=O)c1cc(Cn2nnc(C(F)(F)F)n2)nn1-c1ncccc1C(F)(F)F [Example 234] | ≥ 80 | – | – | ≥ 80 | –
– | – | Cc1cc(Cl)cc(C(=O)NC2CC2)c1NC(=O)c1cc(Cn2nnc(C(F)(C(F)(F)F)C(F)(F)F)n2)nn1-c1ncccc1Cl [Example 365] | ≥ 80 | ≥ 80 | 3.94 | – | –
– | – | Cc1cc(I)cc(C(=O)NCC#N)c1NC(=O)c1cc(Cn2nnc(C(F)(C(F)(F)F)C(F)(F)F)n2)nn1-c1ncccc1Cl [Example 384] | ≥ 80 | ≥ 80 | 3.82 | – | –
3.48 | – | COCCNC(=O)c1cc(C#N)cc(C)c1NC(=O)c1cc(Cn2nnc(C(F)(C(F)(F)F)C(F)(F)F)n2)nn1-c1ncccc1Cl [Example 395] | ≥ 80 | – | – | ≥ 80 | –
– | 4.14 | Cc1cc(Cl)cc(C(=O)NC(C)(C)C)c1NC(=O)c1cc(Cn2nnc(C(F)(F)F)n2)nn1-c1ccccc1 [Example 403] | ≥ 80 | – | – | ≥ 80 | –
– | – | CNC(=O)c1cc(I)cc(C)c1NC(=O)c1cc(Cn2nnc(C(F)(F)C(F)(F)C(F)(F)F)n2)nn1-c1ncccc1Cl [Example 112] | ≥ 80 | ≥ 80 | – | – | 3.99
– | – | CNC(=O)c1cc(I)cc(C)c1NC(=O)c1cc(Cn2nnc(C(F)(F)C(F)(F)F)n2)nn1-c1ncccc1Cl [Example 140] | ≥ 80 | ≥ 80 | 3.64 | – | –
– | – | CC(C)NC(=O)c1cc(Cl)cc(Cl)c1NC(=O)c1cc(Cn2nnc(C(F)(F)F)n2)nn1-c1ncccc1Cl [Example 61] | ≥ 80 | ≥ 80 | 3.41 | – | –
– | – | Cc1cc(C#N)cc(C(N)=O)c1NC(=O)c1cc(Cn2nnnc2C(F)(F)F)nn1-c1ncccc1Cl [Example 192] | ≥ 80 | ≥ 80 | 2.12 | – | –
– | – | Cc1cc(C#N)cc(C(=O)NCc2ccoc2)c1NC(=O)c1cc(Cn2nnc(C(F)(F)F)n2)nn1-c1ncccc1Cl [Example 99] | ≥ 80 | ≥ 80 | 3.09 | – | –
– | – | Cc1cc(I)cc(C(=O)NC(C)C)c1NC(=O)c1cc(Cn2nnc(C(F)(F)C(F)(F)F)n2)nn1-c1ncccc1Cl [Example 142] | ≥ 80 | ≥ 80 | 4.19 | – | –
– | – | Cc1cc(C)c(NC(=O)c2cc(Cn3nnc(C(F)(F)F)n3)nn2-c2ncccc2Cl)c(C(=O)NCC#N)c1 [Example 85] | ≥ 80 | ≥ 80 | 2.83 | – | –
– | – | Cc1cc(C#N)cc(C(=O)NCC2CC2(Cl)Cl)c1NC(=O)c1cc(Cn2nnc(C(F)(F)F)n2)nn1-c1ncccc1Cl (stereo not drawn) [Example 88] | ≥ 80 | ≥ 80 | 3.5 | – | –
– | – | Cc1cc(C#N)cc(C(=O)NCC(C)C)c1NC(=O)c1cc(Cn2nnc(C(F)(F)F)n2)nn1-c1ncccc1Cl [Example 38] | ≥ 80 | ≥ 80 | 3.37 | – | –
